Earlier results, collected in patent publication US6375930B2, “Membrane incorporation of texaphyrins” (Board of Regents, The University of Texas System, priority 1996, dated 2002).

Columns and labels:
[1] = Levy, Semin. Oncol. 1994
[2] = require hydrophobic vehicles for administration

In the case of “benzoporphyrin derivative [BPD verteporfin]”, the “duration of cutaneous photosensitivity” value [1] is given as “a few days” and the “solubility in aqueous solutions” value [2] is given as “insoluble”.

For porfimer sodium, the “duration of cutaneous photosensitivity” value [1] is given as “up to 6 weeks”.

In the case of tin purpurin, the “solubility in aqueous solutions” value [2] is listed as “insoluble”.
